The results in this text go back to US9663473B2 (Actelion Pharmaceuticals Ltd, priority 2013, dated 2017).

The term EC50 denotes the concentration that produces a half-maximal response.

The experiment deals with T1, recombinant human ALX receptor (Homo sapiens, UniProt P25090).
T1 construct: expressed in transfected cells; host or cells: HEK293 (HEK293-hALXR-Gα16)
T1 sequence (P25090 1-351): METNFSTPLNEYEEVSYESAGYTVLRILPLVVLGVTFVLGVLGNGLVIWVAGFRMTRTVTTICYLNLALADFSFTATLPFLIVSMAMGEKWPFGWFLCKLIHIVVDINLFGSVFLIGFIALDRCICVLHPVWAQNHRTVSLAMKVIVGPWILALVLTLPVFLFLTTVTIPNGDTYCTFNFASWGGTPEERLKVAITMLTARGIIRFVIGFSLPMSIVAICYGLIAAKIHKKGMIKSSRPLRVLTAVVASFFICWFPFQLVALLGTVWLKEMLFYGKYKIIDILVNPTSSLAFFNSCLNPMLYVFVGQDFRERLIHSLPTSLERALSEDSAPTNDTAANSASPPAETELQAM
The experiment is described as follows: Intracellular calcium measurements (FLIPR), ALX receptor agonistic activity. Type of experiment: cell-based. The settings on record: HEK293-hALXR-Gα16 cells, Fluo-4 calcium signal, normalized to WKYMVm 10 nM. Put shortly: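 Agonist-induced calcium flux was read by FLIPR (488/540 nm) as baseline-subtracted peak emission, expressed relative to WKYMVm at 10 nM final. Cells used: HEK293-hALXR-Gα16, dye-loaded 60 min at 37° C. with 1 μM Fluo-4 AM before compound dose-response addition.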
(In general: Calcium flux is commonly read through the fluorescence of an indicator in the cells.)
As to `COc1ccc(C[C@@H](NC(=O)NC2CCCc3c(OC)cccc32)c2nc3ccccc3[nH]2)cc1` (stereo partly drawn) [Example 346, 1-((R)-1-(1H-Benzo[d]imidazol-2-yl)-2-(4-methoxyphenyl)ethyl)-3-(5-methoxy-1,2,3,4-tetrahydronaphthalen-1-yl)urea], the EC50 turned out to be 56 nM.

Regarding `COc1ccc(C[C@@H](NC(=O)NCCc2ccccc2C(F)(F)F)c2nc3ccccc3[nH]2)cc1` [Example 274, (R)-1-(1-(1H-Benzo[d]imidazol-2-yl)-2-(4-methoxyphenyl)ethyl)-3-(2-(trifluoromethyl)phenethyl)urea], the EC50 turned out to be 115 nM.

For `COc1ccc(C[C@@H](NC(=O)NC2CCN(C(C)=O)CC2)c2nc3ccccc3[nH]2)cc1` [Example 138, (R)-1-(1-(1H-Benzo[d]imidazol-2-yl)-2-(4-methoxyphenyl)ethyl)-3-(1-acetylpiperidin-4-yl)urea], the EC50 turned out to be 789 nM.

`COc1cc(F)c(CC(NC(=O)NC23CCC(O)(CC2)CC3)c2nc3ccccc3[nH]2)cc1F` (single isomer, unassigned; ent-1) [Example 357, 1-(1-(1H-Benzo[d]imidazol-2-yl)-2-(2,5-difluoro-4-methoxyphenyl)ethyl)-3-(4-hydroxybicyclo[2.2.2]octan-1-yl)urea (ent-1)]: the EC50 is 1 nM.

As to `CC(F)(F)c1ccc(CC(NC(=O)N[C@H]2CC[C@H](O)CC2)c2nc3ccccc3[nH]2)cc1` (relative stereo) [Example 393, 1-(1-(1H-Benzo[d]imidazol-2-yl)-2-(4-(1,1-difluoroethyl)phenyl)ethyl)-3-(trans-4-hydroxycyclohexyl)urea], the EC50 came out at 3.9 nM.

Turning to `COc1ccc(CC(NC(=O)NCc2ccc(Cl)cc2)c2nc3ccccc3[nH]2)cc1` (stereo not shown) [Example 43, 1-(1-(1H-Benzo[d]imidazol-2-yl)-2-(4-methoxyphenyl)ethyl)-3-(4-chlorobenzyl)urea], the EC50 came out at 611 nM.

Take `COc1cc(F)c(CC(NC(=O)N[C@H]2CC[C@H](O)CC2)c2nc3ccccc3[nH]2)c(F)c1` (relative stereo) [Example 235, 1-(1-(1H-Benzo[d]imidazol-2-yl)-2-(2,6-difluoro-4-methoxyphenyl)ethyl)-3-(trans-4-hydroxycyclohexyl)urea]: the EC50 was found to be 3.2 nM.

`COc1ccc(CC(NC(=O)N[C@H]2CC[C@H](OC)CC2)c2nc3ccccc3[nH]2)cc1` (relative stereo) [Example 80, 1-(1-(1H-Benzo[d]imidazol-2-yl)-2-(4-methoxyphenyl)ethyl)-3-(trans-4-methoxycyclohexyl)urea]: the EC50 is 172 nM.

As for `COc1ccc(C[C@@H](NC(=O)NC2CCNCC2)c2nc3ccccc3[nH]2)cc1` [Example 108, (R)-1-(1-(1H-Benzo[d]imidazol-2-yl)-2-(4-methoxyphenyl)ethyl)-3-(piperidin-4-yl)urea], the EC50 is 52 nM.

As for `COc1ccc(CC(NC(=O)NC2CCC(C)(O)CC2)c2nc3ccccc3[nH]2)c(F)c1` (single isomer, unassigned; ent-1) [Example 311, 1-(1-(1H-Benzo[d]imidazol-2-yl)-2-(2-fluoro-4-methoxyphenyl)ethyl)-3-(trans-4-hydroxy-4-methylcyclohexyl)urea (ent-1)], the EC50 turned out to be 3.6 nM.

Turning to `COc1ccc(C[C@@H](NC(=O)NC2CCC(C)CC2)c2nc3ccccc3[nH]2)cc1` (stereo partly drawn) [Example 22, (R)-1-(1-(1H-Benzo[d]imidazol-2-yl)-2-(4-methoxyphenyl)ethyl)-3-(4-methylcyclohexyl)urea], the EC50 turned out to be 85 nM.

As to `COc1ccc(CC(NC(=O)NC23CCC(O)(CC2)CC3)c2nc3ccc(F)cc3[nH]2)c(F)c1` (single isomer, unassigned; ent-1) [Example 263, 1-(1-(6-Fluoro-1H-benzo[d]imidazol-2-yl)-2-(2-fluoro-4-methoxyphenyl)ethyl)-3-(4-hydroxybicyclo[2.2.2]octan-1-yl)urea (ent-1)], the EC50 came out at 1.4 nM.

With `COc1ccc(CC(NC(=O)NC23CCC(O)(CC2)CC3)c2nc3ccc(F)cc3[nH]2)c(F)c1` (single isomer, unassigned; ent-2) [Example 398, 1-(1-(6-Fluoro-1H-benzo[d]imidazol-2-yl)-2-(2-fluoro-4-methoxyphenyl)ethyl)-3-(4-hydroxybicyclo[2.2.2]octan-1-yl)urea (ent-2)], the EC50 came out at 2620 nM.

As to `COc1ccc(C[C@@H](NC(=O)N[C@@H](C)c2ccccc2OC)c2nc3ccccc3[nH]2)cc1` [Example 326, 1-((R)-1-(1H-Benzo[d]imidazol-2-yl)-2-(4-methoxyphenyl)ethyl)-3-((S)-1-(2-methoxyphenyl)ethyl)urea], the EC50 worked out at 46 nM.

Consider `O=C(NC(Cc1ccc(C(F)(F)F)cc1F)c1nc2cc(F)ccc2[nH]1)NC12CCC(O)(CC1)CC2` (single isomer, unassigned; ent-1) [Example 361, 1-(1-(5-Fluoro-1H-benzo[d]imidazol-2-yl)-2-(2-fluoro-4-(trifluoromethyl)phenyl)ethyl)-3-(4-hydroxybicyclo[2.2.2]octan-1-yl)urea (ent-1)], for which the EC50 was 3.9 nM.

On to `COc1ccc(C[C@@H](NC(=O)NC2CCN(S(C)(=O)=O)C2)c2nc3ccccc3[nH]2)cc1` (stereo partly drawn) [Example 157, 1-((R)-1-(1H-Benzo[d]imidazol-2-yl)-2-(4-methoxyphenyl)ethyl)-3-(1-(methylsulfonyl)pyrrolidin-3-yl)urea], for which the EC50 came to 187 nM.

As for `COc1ccc(C[C@@H](NC(=O)NCC(c2ccccc2)N2CCOCC2)c2nc3ccccc3[nH]2)cc1` (stereo partly drawn) [Example 215, 1-((R)-1-(1H-Benzo[d]imidazol-2-yl)-2-(4-methoxyphenyl)ethyl)-3-(2-morpholino-2-phenylethyl)urea], the EC50 turned out to be 8.9 nM.

For `COc1ccc(CC(NC(=O)N[C@H]2CC[C@H](O)CC2)c2nc3ccc(F)cc3[nH]2)c(F)c1` (relative stereo) [Example 244, 1-(1-(6-Fluoro-1H-benzo[d]imidazol-2-yl)-2-(2-fluoro-4-methoxyphenyl)ethyl)-3-(trans-4-hydroxycyclohexyl)urea], the EC50 is 1.1 nM.

Consider `COc1ccc(C[C@@H](NC(=O)NC(C)(C)c2cccc(C)c2)c2nc3ccccc3[nH]2)cc1` [Example 353, (R)-1-(1-(1H-Benzo[d]imidazol-2-yl)-2-(4-methoxyphenyl)ethyl)-3-(2-(m-tolyl)propan-2-yl)urea], for which the EC50 was determined as 461 nM.

As to `COc1ccc(C[C@@H](NC(=O)NC2CC(C)(C)NC(C)(C)C2)c2nc3ccc(C#N)cc3[nH]2)cc1` [Example 153, (R)-1-(1-(6-Cyano-1H-benzo[d]imidazol-2-yl)-2-(4-methoxyphenyl)ethyl)-3-(2,2,6,6-tetramethylpiperidin-4-yl)urea], the EC50 came out at 8.7 nM.

In the case of `COc1ccc(C[C@@H](NC(=O)N[C@H](CC(=O)OC(C)(C)C)c2ccccc2)c2nc3ccccc3[nH]2)cc1` [Example 378, (R)-tert-Butyl 3-(3-((R)-1-(1H-benzo[d]imidazol-2-yl)-2-(4-methoxyphenyl)ethyl)ureido)-3-phenylpropanoate], the EC50 turned out to be 1470 nM.

Regarding `COc1ccc(C[C@@H](NC(=O)NCC2CCCCC2)c2nc3ccccc3[nH]2)cc1` [Example 98, (R)-1-(1-(1H-Benzo[d]imidazol-2-yl)-2-(4-methoxyphenyl)ethyl)-3-(cyclohexylmethyl)urea], the EC50 was determined as 432 nM.

In the case of `O=C(NC(Cc1ccc(C(F)(F)F)cc1F)c1nc2ccccc2[nH]1)NC12CCC(O)(CC1)CC2` (single isomer, unassigned; ent-1) [Example 362, 1-(1-(1H-Benzo[d]imidazol-2-yl)-2-(2-fluoro-4-(trifluoromethyl)phenyl)ethyl)-3-(4-hydroxybicyclo[2.2.2]octan-1-yl)urea (ent-1)], the concentration giving a half-maximal response (EC50) is 27 nM.

For `O=C(N[C@H](Cc1ccc(Br)cc1)c1nc2ccc(F)cc2[nH]1)NC12CCC(O)(CC1)CC2` [Example 195, (R)-1-(2-(4-Bromophenyl)-1-(6-fluoro-1H-benzo[d]imidazol-2-yl)ethyl)-3-(4-hydroxybicyclo[2.2.2]octan-1-yl)urea], the EC50 came to 1.1 nM.

Regarding `CCc1ccc(CC(NC(=O)N[C@H]2CC[C@H](O)CC2)c2nc3cc(F)ccc3[nH]2)cc1` (single isomer, unassigned; ent-1) [Example 368, 1-(2-(4-Ethylphenyl)-1-(5-fluoro-1H-benzo[d]imidazol-2-yl)ethyl)-3-(trans-4-hydroxycyclohexyl)urea (ent-1)], the EC50 turned out to be 1.8 nM.

In the case of `COc1ccc(C[C@@H](NC(=O)NCCc2ccc(C(F)(F)F)cc2)c2nc3ccccc3[nH]2)cc1` [Example 269, (R)-1-(1-(1H-Benzo[d]imidazol-2-yl)-2-(4-methoxyphenyl)ethyl)-3-(4-(trifluoromethyl)phenethyl)urea], the EC50 worked out at 471 nM.

As to `COc1ccc(CC(NC(=O)N[C@H]2CC[C@](C)(O)CC2)c2nc3ccc(F)cc3[nH]2)c(F)c1` (mixture of isomers) [Example 246, 1-(1-(6-Fluoro-1H-benzo[d]imidazol-2-yl)-2-(2-fluoro-4-methoxyphenyl)ethyl)-3-(trans-4-hydroxy-4-methylcyclohexyl)urea], the EC50 worked out at 1.8 nM.

As for `COc1ccc(CC(NC(=O)NC2CCOCC2)c2nc3ccccc3[nH]2)cc1` (stereo not shown) [Example 10, 1-(1-(1H-Benzo[d]imidazol-2-yl)-2-(4-methoxyphenyl)ethyl)-3-(tetrahydro-2H-pyran-4-yl)urea], the 50% effective concentration (EC50) was 113 nM.
